Data as given in publication PMC8833744, “Strategic Decoy Peptides Interfere with MSI1/AGO2 Interaction to Elicit Tumor Suppression Effects” (Cancers, 2022).
Residues, ends and D or L forms follow the SMILES beside them. No end group written: not given here. *: point of attachment. 5FAM = O=C1OC2(c3ccc(O)cc3Oc3cc(O)ccc32)c2ccc(C(=O)*)cc21

Columns and labels:
[1] = target: T1, His-tagged recombinant AGO2 (Homo sapiens, UniProt Q9UKV8); experiment: Surface plasmon resonance (Biacore T200) binding of peptides to AGO2; conditions: for kon: read-out: ka (association rate constant); for koff: read-out: kd (dissociation rate constant)
T1 sequence (Q9UKV8 whole entry): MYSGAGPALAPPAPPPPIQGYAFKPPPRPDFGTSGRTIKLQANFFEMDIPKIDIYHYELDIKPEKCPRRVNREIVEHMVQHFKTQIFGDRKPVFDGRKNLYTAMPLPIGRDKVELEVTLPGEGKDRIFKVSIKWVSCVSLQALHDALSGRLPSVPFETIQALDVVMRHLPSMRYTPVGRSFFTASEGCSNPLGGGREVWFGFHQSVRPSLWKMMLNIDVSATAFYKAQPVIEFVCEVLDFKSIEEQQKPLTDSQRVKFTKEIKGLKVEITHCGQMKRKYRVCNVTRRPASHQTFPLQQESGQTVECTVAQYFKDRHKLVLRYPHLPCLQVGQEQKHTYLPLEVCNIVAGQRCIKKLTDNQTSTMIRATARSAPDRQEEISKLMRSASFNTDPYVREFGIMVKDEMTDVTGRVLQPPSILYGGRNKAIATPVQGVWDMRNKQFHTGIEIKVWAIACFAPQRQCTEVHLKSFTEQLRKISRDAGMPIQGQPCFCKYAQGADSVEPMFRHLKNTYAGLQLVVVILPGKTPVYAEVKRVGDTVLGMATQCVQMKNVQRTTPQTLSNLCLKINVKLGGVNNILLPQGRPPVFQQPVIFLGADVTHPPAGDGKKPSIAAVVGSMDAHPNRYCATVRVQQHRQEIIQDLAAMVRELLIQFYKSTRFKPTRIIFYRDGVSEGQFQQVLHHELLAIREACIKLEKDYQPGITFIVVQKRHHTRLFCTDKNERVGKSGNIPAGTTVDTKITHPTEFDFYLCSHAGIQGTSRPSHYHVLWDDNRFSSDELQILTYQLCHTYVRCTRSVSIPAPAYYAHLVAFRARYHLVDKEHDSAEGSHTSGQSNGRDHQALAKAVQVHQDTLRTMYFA
Experimental: Surface Plasmon Resonance (SPR) was utilized using Biacore T200 (GE Healthcare) to study binding affinities between decoy peptides Pep#11 and Pep#26 peptides with recombinant His-tagged AGO2 protein. The recombinant His-AGO2 and MSI1 peptides were diluted in HBS-P buffer (10 mM HEPES, 150 mM NaCl and 0.005% T20, pH 7.4). To evaluate the binding affinity, recombinant His-AGO2 was immobilized on a CM5 sensor chip (GE Healthcare, BR100012) via amine coupling (~7000 RU) for 3600 s at a rate of 5 µL/mins, and flow rate for binding analysis was run at 30 µL/mins. After injection of each peptide, the surface was regenerated with an injection of 10 mM NaOH. All sensorgrams were double referenced by subtracting the surface effect from the control flow […] and the buffer effect form the blank buffer. The kinetic values ka, kd, and KD were obtained using Biacore T200 Evaluation Software (GE healthcare) assuming the Langmuir 1:1 binding model.

[2] = target: T2, endogenous AGO2 (Homo sapiens, UniProt Q9UKV8); experiment: Confocal immunofluorescence of 5′FAM-tagged peptides: cell entry and co-localization with AGO2; type: cell-based; conditions: 10 µM 5′FAM-tagged peptide
T2 construct: endogenous in cells
T2 sequence (Q9UKV8 whole entry): as above
Source text: (§1) Other general procedures not detailed above including plasmid constructions, transfection, co-immunoprecipitation, RNA extraction, quantitative real-time PCR (qRT-PCR), gene expression analysis, Western blotting, immunofluorescence (IF) staining, and immunohistochemistry staining (IHC) were described previously.

[3] = target: T3, MSI1/AGO2 interaction (M-NGluc / A-CGluc) (Homo sapiens, UniProt Q9UKV8); experiment: Split Gaussia luciferase reconstitution assay of MSI1/AGO2 interaction; type: cell-based; conditions: IVIS; for reconstituted luciferase luminescence versus non-treated or CP-treated cells: tat-conjugated peptides, cisplatin-induced stress (30 µM)
T3 construct: expressed in transfected cells; pcDNA 3.1 and pCMV backbones
T3 sequence (Q9UKV8 whole entry): as above
Source text: We applied a gaussia luciferase (Gluc) system to detect protein–protein interaction between MSI1 and AOG2. We split gaussia luciferase into two fragments: the 106 a.a. N-terminus (NGluc) and the 79 a.a. C-terminus (CGluc). After polymerase chain reaction (PCR) amplification, the NGluc and CGluc were subjected to construct fusion protein with MSI1 and AGO2, respectively, in the pcDNA 3.1 and pCMV backbone. Each fusion protein contains a flexible linker (GGGGS) 2 between the protein and polypeptides of split luciferase. We stably transfected both fusion protein expression plasmids in DBTRG-05MG GBM cell line and generated a stable cell line with Hygromycin B (Sigma Aldrich Co., St. Louis, MI, USA) and G418 sulfate (Merck Co., […], Germany). We established a normalizing standard by transducing multiple reporter genes into the generated stable cell line for stably expressing green fluorescent protein (GFP), firefly luciferase (FLuc), and herpes simplex virus type I thymidine kinase (HSV1-tk) using lentivirus as previously described. For in vitro MSI1/AGO2 interaction study in cells, cell lysates were prepared with mild reporter lysis buffer (Promega Co., Madison, WI, USA) with a frozen–thaw cycle. The supernatant was then collected after centrifugation and dispensed in a 96-well black flat bottom plate. Coelenterazine (Nanolight Technologies, Ltd., Pinetop, AZ, USA), the substrate of GLuc, was firstly dissolved in methanol and diluted in reporter assay buffer (15 mM potassium phosphate, 25 mM glycylglycine, 15 mM MgSO4, 4 mM EDTA). D-luciferin sodium salt (Promega Co., Madison, WI, USA) was dissolved in sterilized water and diluted in reporter assay buffer supplemented with 2mM ATP. The bioluminescent signals were acquired by Wallac 1420 Victor2 Microplate Reader (Perkin Elmer, Waltham, MA, USA) equipped with auto-dispenser to avoid rapid decay of Gluc.

[4] = system: DBTRG-05MG cells; experiment: Degradation of 5′FAM-labeled peptides in cells; type: in vitro ADME, human; conditions: 5′FAM-labeled peptide, cells followed up to 6 h, fluorescence by ELISA reader, three independent experiments
[5] = system: DBTRG-05MG cell line; experiment: Concentration-dependent cellular uptake (half-uptake concentration EC50); type: in vitro ADME, human; conditions: Figure 6A,B legend, fluorescein labeled peptides, ELISA reader
[6] = target: T1, His-tagged recombinant AGO2; experiment: PepSpot peptide tiling array incubated with His-tagged AGO2; type: binding; conditions: 15-mer peptides on nitrocellulose, 2 μg His-AGO2 overnight, HRP anti-6×His
Experimental: To rapidly screen the putative binding hotspots along the C-terminus of MSI1, we mimicked the epitope screening method by dotting the synthetic short peptides on nitrocellulose membrane and incubated with purified AGO2 protein [49]. The C-terminus of MSI1 (200–362) was divided into 27 individual synthetic peptides with N-terminal amine attached on the nitrocellulose. Each peptide is 15 amino acids in length and has eight amino acids overlapping with the previous neighboring peptide (Table S1). The purchased PepSpot membrane (JPT peptide technologies, Berlin, Germany) was firstly rinsed in methanol for 5 min, followed by Tris buffer saline supplemented with 0.1% Tween-20 (TBS-T) washing thrice. The membrane was then blocked by Superblock T20 blocking buffer (Thermo Fisher Scientific Inc., Waltham, MA, USA) for 2 h and 2 μg His-tagged AGO2 recombinant protein was added for an overnight incubation. The membrane was washed thrice with TBS-T and incubated with horseradish peroxidase (HRP)-conjugated 6×His tag primary antibody (Genetex Inc., Hsinchu, Taiwan) for 4 h under 4 °C. Enhanced chemiluminescent reagent was used for further blotting.

[7] = system: CCND1, CDK4, HELLS, NF2, TP53, p21 mRNA; experiment: qRT-PCR of downstream mRNA targets of the MSI1-AGO2 complex under hypoxia; type: cell-based, human; conditions: peptide transfection in DBTRG-05MG cells, hypoxia versus normoxia
Experimental: In vitro binding assay was carried out with N-terminal biotinylated synthetic peptides (Table S3) based on our peptide array screening. The synthesized peptides (Thermo Fisher Scientific Inc., Waltham, MA, USA) were dissolved in 10% DMSO by 1 mg/mL and subjected to incubation with an equal amount of AGO2 recombinant protein (2 μg each) in T20 blocking solution (Thermo Fisher Scientific Inc., Waltham, MA, USA). After 16 h incubation, the peptides were pulled down with immobilized streptavidin (Pierce 21115, Thermo Fisher Scientific Inc., Waltham, MA, USA). The precipitated peptide/protein complex was subjected to immunoblotting with 6×His primary antibody (GeneTex Inc., Hsinchu, Taiwan) hybridization and detection. Peptide transfection was carried out with Proteojuice (Millipore 71281, Merck Co., Darmstadt, Germany) following the manufacturer’s instruction. For the in vivo compatible cell-penetrating peptide (CPP)-modified peptides, we tested two different CPPs at the C-terminal ends, including TAT (48–60) from HIV [55, 56, 57].
as §1

[8] = target: T4, MSI1/AGO2 interaction (Homo sapiens, UniProt Q9UKV8); experiment: Co-immunoprecipitation competition of MSI1/AGO2 complex in cells; type: cell-based; conditions: cells treated with 10 µM peptide, hypoxic condition
T4 construct: endogenous in cells
T4 sequence (Q9UKV8 whole entry): as above
Source text: as §1

[9] = system: DBTRG-05MG cells; experiment: Time-lapse cellular uptake of 5′FAM-labeled peptides; type: in vitro ADME, human; conditions: 5′FAM-labeled peptide, time-lapse confocal and fluorescence by ELISA reader, n = 3 per time point

Row | Compound | kon [1] [M⁻¹ s⁻¹] | koff [1] [s⁻¹] | entry into cells (confocal microscopy) [2] | time of significant degradation in the cells (change in 5′FAM fluorescence) [4] | reconstituted luciferase luminescence versus non-treated or CP-treated cells [3] | EC50 [5] [µM] | binding to AGO2 on the peptide array (immunoblot) [6] | effect of hypoxia-induced MSI1/AGO2 complex on downstream mRNAs (CCND1, CDK4, HELLS, NF2, TP53, p21) [7] | interference with MSI1/AGO2 binding complex formation (Co-IP immunoblot) [8] | further results
1 | GSHPWTMAPPPGSTPGRKKRRQRRRPPQ [CP, reference compound] | 42500 | 4.53 |  |  |  |  |  |  |  | 
2 | CC(C)C[C@H](NC(=O)[C@@H]1CCCN1C(=O)[C@@H](NC(=O)[C@H](CCCNC(=N)N)NC(=O)[C@H](CCC(=O)O)NC(=O)[C@@H](NC(=O)[C@H](CCCNC(=N)N)NC(=O)[C@H](Cc1ccccc1)NC(=O)[C@H](CCC(=O)O)NC(=O)[C@@H]1CCCN1C(=O)[C@H](Cc1ccccc1)NC(=O)[C@H](CCC(N)=O)NC(=O)[C@H](Cc1ccc(O)cc1)NC(=O)c1ccc2c(c1)C(=O)OC21c2ccc(O)cc2Oc2cc(O)ccc21)C(C)C)[C@@H](C)O)C(=O)N1CCC[C@H]1C(=O)N[C@@H](CO)C(=O)NCC(=O)N[C@@H](CCCNC(=N)N)C(=O)N[C@@H](CCCCN)C(=O)N[C@@H](CCCCN)C(=O)N[C@@H](CCCNC(=N)N)C(=O)N[C@@H](CCCNC(=N)N)C(=O)N[C@@H](CCC(N)=O)C(=O)N[C@@H](CCCNC(=N)N)C(=O)N[C@@H](CCCNC(=N)N)C(=O)N[C@@H](CCCNC(=N)N)C(=O)N1CCC[C@H]1C(=O)N1CCC[C@H]1C(=O)N[C@@H](CCC(N)=O)C(=O)O [5′FAM-Pep#11] (5FAM-YQFPEFRVERTPLPSGRKKRRQRRRPPQ-OH) |  |  | capable of entering the cells |  |  |  |  |  |  | subcellular co-localization with AGO2 ([2]; confocal microscopy): co-localized with endogenous AGO2 in the cytosol
3 | N.N.[Cl][Pt][Cl] [cisplatin, reference compound] |  |  |  |  |  |  |  |  |  | luciferase luminescence versus PBS-treated group ([3]; cells overexpressing M-NGluc and A-CGluc, 30 µM cisplatin): significantly greater luminescence
4 | HSLGGPLIATAFTNGGRKKRRQRRRPPQ [Pep#26] | 3160 | 0.00213 |  | within the first half an hour | significantly lower | 9 | strongest binding peptides | reversed | completely abolished | 
5 | CC[C@H](C)[C@H](NC(=O)[C@H](CC(C)C)NC(=O)[C@@H]1CCCN1C(=O)CNC(=O)CNC(=O)[C@H](CC(C)C)NC(=O)[C@H](CO)NC(=O)[C@H](Cc1c[nH]cn1)NC(=O)c1ccc2c(c1)C(=O)OC21c2ccc(O)cc2Oc2cc(O)ccc21)C(=O)N[C@@H](C)C(=O)N[C@H](C(=O)N[C@@H](C)C(=O)N[C@@H](Cc1ccccc1)C(=O)N[C@H](C(=O)N[C@@H](CC(N)=O)C(=O)NCC(=O)NCC(=O)N[C@@H](CCCNC(=N)N)C(=O)N[C@@H](CCCCN)C(=O)N[C@@H](CCCCN)C(=O)N[C@@H](CCCNC(=N)N)C(=O)N[C@@H](CCCNC(=N)N)C(=O)N[C@@H](CCC(N)=O)C(=O)N[C@@H](CCCNC(=N)N)C(=O)N[C@@H](CCCNC(=N)N)C(=O)N[C@@H](CCCNC(=N)N)C(=O)N1CCC[C@H]1C(=O)N1CCC[C@H]1C(=O)N[C@@H](CCC(N)=O)C(=O)O)[C@@H](C)O)[C@@H](C)O [5′FAM-Pep#26] (5FAM-HSLGGPLIATAFTNGGRKKRRQRRRPPQ-OH) |  |  | capable of entering the cells |  |  |  |  |  |  | 
6 | YQFPEFRVERTPLPSGRKKRRQRRRPPQ [Pep#11] | 32600 | 0.0168 |  | within the first half an hour | significantly lower | 9.1 | strongest binding peptides | reversed | completely abolished | time of significant increases in cellular uptake [9]: within the first hour
